A short description of data set [1]: Pharmacokinetic parameters in rhesus monkeys. In kind it is in vivo. To be noted: for individual variation of in vivo exposure / AUC(0-t) / Cmax / MRT / t1/2: 50 mg/kg; for AUC(0-t) / Cmax / MRT / t1/2: rhesus monkeys, single dose, plasma. The protocol:
The pharmacokinetic parameters of the compound of formula (IV) and its different salt forms were studied in rhesus monkeys, and the properties of the different forms of the compounds were evaluated in detail. Four rhesus monkeys were used as test animals, half male and half female. The rhesus monkeys were administered a single dose of 50 mg/kg. Multi-crossover design was adopted to administer different drugs to test animals, and the convalescence from each cycle was three days. Blood samples (0.5 mL) were taken from the femoral vein before administration (0 h), and at 0.25 h, 0.5 h, 1 h, 2 h, 4 h, 6 h, 8 h and 24 h after administration, stored in heparinized tubes, shaken well, and centrifuged for 10 minutes at 3500 rpm to separate blood plasma. The plasma samples were stored at low temperature, LC-MS/MS was used to measure drug concentration in plasma and liver, and pharmacokinetic parameters were analyzed by WinNonlin 5.3 software.

Data set [2] has as its system rheumatoid arthritis patients. The settings on record: phase III clinical trial, cited from earlier work.

Read-outs that look alike come from different tables or passages of the source.

For orientation: AUC(0-t) means exposure summed from dosing to a finite time, without extrapolation to infinity. One may read the Cmax as the peak of the concentration-time curve. The MRT is the average time that molecules of a dose stay in the body. `COc1nsc(NC(=O)N2C[C@H]3C[C@H](N(C)c4ncnc5[nH]ccc45)C[C@H]3C2)n1` [Compound of formula (IV), (3aR,5s,6aS)—N-(3-Methoxy-1,2,4-thiadiazol-5-yl)-5-(methyl(7H-pyrrolo[2,3-d]pyrimidin-4-yl)amino)hexahydrocyclopenta[c]pyrrol-2(1H)-carboxamide]: in data set [1] (monkeys, 50 mg/kg single dose), the in vivo exposure is on record as 41111 ng/ml*h and the “individual variation of in vivo exposure” value is “relatively large individual variation”. Further, in data set [1], the “AUC(0-t)” value stood at 41111 ± 59593 ng·h/mL, the Cmax came to 6176 ± 8838 ng/mL, the MRT amounted to 8.8 ± 5.16 h and the t1/2 was determined as 6.3 ± 3.5 h.
For Citrate, in data set [1], the “AUC(0-t)” value amounted to 44357 ± 45012 ng·h/mL, the highest concentration (Cmax) amounted to 5627 ± 4201 ng/mL, the MRT worked out at 10.0 ± 7.6 h and the t1/2 was 6.3 ± 5.5 h.
Regarding `C[C@@H]1CCN(C(=O)CC#N)C[C@@H]1N(C)c1ncnc2[nH]ccc12` [tofacitinib], the “efficacy compared with methotrexate” value in data set [2] (5 mg/10 mg as a single drug) was “significantly better than methotrexate”. In addition, in data set [2] (period of six months), the “efficacy in reducing the progression of internal structural damage compared with methotrexate” value is “slightly better than methotrexate”.
On to `COc1nsc(NC(=O)N2C[C@H]3C[C@H](N(C)c4ncnc5[nH]ccc45)C[C@H]3C2)n1` [Bisulfate, (3aR,5s,6aS)—N-(3-methoxyl-1,2,4-thiadiazol-5-yl)-5-(methyl(7H-pyrrolo[2,3-d]pyrimidin-4-yl)amino)hexahydrocyclopenta[c]pyrrole-2(1H)-carboxamide bisulfate], for which the AUC(0-t) in data set [1] (both sexes, rhesus monkey, read-out: AUC(0-t)) came out at 63000 ± 53600 ng·h/mL. Also, the Cmax in data set [1] (both sexes, rhesus monkey, read-out: Cmax) turned out to be 9940 ± 5320 ng/mL. Besides, the MRT in data set [1] (both sexes, rhesus monkey, read-out: MRT) was found to be 6.3 ± 1.7 h. In addition, the “increase of in vivo exposure relative to that of the base” value in data set [1] (monkeys, 50 mg/kg single dose) is given as 50%. The “individual variation of in vivo exposure” value in data set [1] (monkeys, 50 mg/kg single dose, listed as bisulfate salt) is “relatively small individual variation”. This compound gave a t1/2 in data set [1] of 5.3 ± 1.6 h.

The values are drawn from patent US9422300B2, “Bisulfate of janus kinase (JAK) inhibitor and preparation method therefor” (Jiangsu Hengrui Medicine Co., Ltd., priority 2013, dated 2016).
